From patent US20100009970A1, “COMPOSITIONS AND METHODS FOR TREATMENT OF VIRAL DISEASES” (Combinatorx (Singapore) Pte. Ltd., priority 2008, published 2010)
Where a name gives a salt, the structure may show the parent alone. Read-outs that look alike come from different tables or passages of the source.

Experiments:
[1] = system: Huh7 cells expressing a subgenomic RNA replicon of Con1 (genotype 1b) sequence origin
[2] = system: Huh7 cells expressing a subgenomic RNA replicon of Con1 (genotype 1b) sequence origin; assay: microbe, parasite or virus in culture; settings: Hepatitis C virus
[3] = in vitro; settings: human
[4] = Huh-7, read-out: IC50 (uM) [SG]
[5] = Huh-7, read-out: Max Effect@CC30 (inhibition)

| Compound | IC50 [1] | IC50 [2, 4] | CC50 ([3]; CC50 (uM) [SG]) | also measured |
| --- | --- | --- | --- | --- |
| Nc1ccc(C(=O)O)c(O)c1 [P-Aminosalicylic acid, reference compound] | 13.2 µM |  |  |  |
| Cc1ccc(S(=O)(=O)/C=C/C#N)cc1 [Bay 11-7082, reference compound] | 15 µM |  |  |  |
| COc1ccc(-c2nc(C(=O)N3CCN(C)CC3)sc2-c2ccc(OC)cc2)cc1 [FR122047, reference compound] | 23 µM |  |  |  |
| CC(=O)ON=C1C(=O)N(Cc2cc(Cl)ccc2Cl)c2ccc(Cl)cc21 [UCH-L1 inhibitor, reference compound] | 17.2 µM |  |  |  |
| O=C1C(Cl)=C(NCCN2CCOCC2)C(=O)c2ncccc21 [NSC 663284, reference compound] | 0.614 µM |  |  |  |
| C/C1=C2/[N-][C@H]([C@H](CC(N)=O)[C@@]2(C)CCC(=O)NC[C@@H](C)OP(=O)([O-])O[C@H]2[C@@H](O)[C@@H](n3cnc4cc(C)c(C)cc43)O[C@@H]2CO)[C@]2(C)N=C(/C(C)=C3N=C(/C=C4N=C1[C@@H](CCC(N)=O)C\4(C)C)[C@@H](CCC(N)=O)[C@]\3(C)CC(N)=O)[C@@H](CCC(N)=O)[C@]2(C)CC(N)=O.[Co+3].[OH-] [Hydroxocobalamin, hydroxocobalamin, reference compound] | 1.33 µM |  |  |  |
| Cc1cc(N)c2ccccc2c1O [Vitamin K5] | 19.6 µM |  |  |  |
| CC(C)(C)c1cc(O)c(C(C)(C)C)cc1O [BHQ, reference compound] | 23.3 µM |  |  |  |
| O=C(O)CN(CC(=O)O)c1ccccc1OCCOc1ccccc1N(CC(=O)O)CC(=O)O [1,2-Bis-(2-aminophenoxy)ethane N,N,N,N,-tetreacetic acid, reference compound] | 14.5 µM |  |  |  |
| Nc1nc(-c2nn(Cc3ccccc3F)c3ncccc23)ncc1C1CC1 [Bay 41-2272, reference compound] | 0.754 µM |  |  |  |
| Cc1ccc(NCCCc2ccccc2)c(N)c1 [JSH-23, reference compound] | 2.55 µM |  |  |  |
| CC(=O)[O][Pt]([NH2])([Cl])([Cl])([NH]C1CCCCC1)[O]C(C)=O [Satraplatin, reference compound] | 4.8 µM |  |  |  |
| N#CC(C#N)=Cc1ccc(O)c(O)c1 [Tyrphostin 23, tyrphostin 23, reference compound] | 14.6 µM |  |  |  |
| N#CC(C#N)=Cc1cc(O)c(O)c(O)c1 [Tyrphostin 25, tyrphostin 25, reference compound] | 16 µM |  |  |  |
| N-Tosyl-L-phenylalanine chloromethyl ketone [reference compound] | 16.7 µM |  |  |  |
| OCCN1CCN(CC/C=C2/c3ccccc3Sc3ccc(C(F)(F)F)cc32)CC1 [Flupentixol (e.g., dihydrochloride), Flupentixol, reference compound] | 3.6 µM |  |  |  |
| C/C1=C2/[N-][C@H]([C@H](CC(N)=O)[C@@]2(C)CCC(=O)NC[C@H](C)OP(=O)([O-])O[C@H]2[C@@H](O)[C@@H](n3cnc4cc(C)c(C)cc43)O[C@@H]2CO)[C@]2(C)N=C(/C(C)=C3N=C(/C=C4N=C1[C@@H](CCC(N)=O)C\4(C)C)[C@@H](CCC(N)=O)[C@]\3(C)CC(N)=O)[C@@H](CCC(N)=O)[C@]2(C)CC(N)=O.[CH3-].[Co+3] [Mecobalamin, mecobalamin, reference compound] | 0.179 µM |  |  |  |
| N#C/C(=C\c1ccc(O)c(O)c1)C(N)=O [Tyrphostin 46, tyrphostin A46, reference compound] | 21.2 µM |  |  |  |
| CCCCC1C(=O)N(c2ccccc2)N(c2ccc(O)cc2)C1=O (stereo not drawn) [Oxyphenbutazone (e.g., hydrate), oxyphenbutazone, reference compound] | 4.17 µM |  |  |  |
| C[C@@H]1C[C@H]2[C@@H]3CCC4=CC(=O)C=C[C@]4(C)[C@@]3(Cl)[C@@H](O)C[C@]2(C)[C@@]1(O)C(=O)CCl [Mometasone (e.g., furoate), mometasone, reference compound] | 11.3 µM |  |  |  |

| Compound | IC50 [1] | IC50 [2, 4] | CC50 ([3]; CC50 (uM) [SG]) | also measured |
| --- | --- | --- | --- | --- |
| CC(=O)O[C@@]12CO[C@@H]1C[C@H](O)[C@@]1(C)C(=O)[C@H](O)C3=C(C)[C@@H](O)C[C@@](O)([C@@H](OC(=O)c4ccccc4)[C@H]21)C3(C)C [10-Deacetylbaccatine Iii, reference compound] | 10.3 µM |  |  |  |
| COc1cc2ncnc(Nc3cccc(Cl)c3)c2cc1OC [Tyrphostin Ag 1478, tyrphostin AG 1478, reference compound] | 3.41 µM |  |  |  |
| COc1ccc(Oc2ccc(Br)cc2CN(C)C)cc1 [Compound 42, (5-bromo-2-(4-methoxyphenoxy)phenyl)-N,N-dimethylmethanamine] |  | 30.8 µM | > 50 µM | Emax [2, 5]: 51.7% |
| CSc1ccc(Oc2ccc(S(N)(=O)=O)cc2CNCCCN(C)C)cc1C [Compound 79, 3-((3-(dimethylamino)propylamino)methyl)-4-(3-methyl-4-(methylthio)phenoxy)benzenesulfonamide] |  | 3.44 µM | 17.8 µM | IC90 ([2]; Huh-7): 9.66 µM |
| CNS(=O)(=O)c1ccc(Oc2ccc(SC)c(C)c2)c(CN(C)C)c1 [Compound 6, 3-((dimethylamino)methyl)-N-methyl-4-(3-methyl-4-(methylthio)phenoxy)benzenesulfonamide] |  | 5.8 µM | 45.3 µM | IC90 ([2]; Huh-7): 14.8 µM; Emax [2, 5]: 93.2% |
| CSc1ccc(Oc2ccc(S(=O)(=O)NC3CC3)cc2CN(C)C)cc1C [Compound 13, N-cyclopropyl-3-((dimethylamino)methyl)-4-(3-methyl-4-(methylthio)phenoxy)benzenesulfonamide] |  | 25.5 µM | 41.8 µM |  |
| CN(C)[C@H]1CC[C@@H](c2ccc(Cl)c(Cl)c2)c2ccc(C(=O)NCC3CC3)cc21 [(5S,8S)—N-(cyclopropylmethyl)-5-(3,4-dichlorophenyl)-8-(dimethylamino)-5,6,7,8-tetrahydronaphthalene-2-carboxamide] |  | 5.61 µM | 19.4 µM | IC90 ([2]; Huh-7): 12.2 µM |
| CCCCS(=O)(=O)Nc1ccc2c(c1)[C@@H](NC)CC[C@H]2c1ccc(Cl)c(Cl)c1 [N-((5S,8S)-5-(3,4-dichlorophenyl)-8-(methylamino)-5,6,7,8-tetrahydronaphthalen-2-yl)butane-1-sulfonamide] |  | 6.07 µM | 3.63 µM |  |
| O=C1CC[C@@H](c2ccc(Cl)c(Cl)c2)c2ccccc21 [4S-Sertraline Ketone, (S)-4-(3,4-dichlorophenyl)-3,4-dihydronaphthalen-1(2H)-one] |  | 32.6 µM | > 50 µM | Emax [2, 5]: 77% |
| CSc1ccc(N(C)c2ccc(Br)cc2CN(C)C)cc1C [Compound 98, 4-Bromo-2-((dimethylamino)methyl)-N-methyl-N-(3-methyl-4-(methylthio)phenyl)aniline] |  | 25 µM | > 50 µM | IC90 ([2]; Huh-7): 26.8 µM |
| CNc1ccc(Oc2ccc(SC)c(C)c2)c(CN(C)C)c1 [Compound 25, 3-((dimethylamino)methyl)-N-methyl-4-(3-methyl-4-(methylthio)phenoxy)aniline] |  | 20 µM | 46.9 µM |  |
| CSc1ccc(Oc2ccc(S(N)(=O)=O)cc2CO)cc1C [Compound 47, 3-(hydroxymethyl)-4-(3-methyl-4-(methylthio)phenoxy)benzenesulfonamide] |  | 18.1 µM | > 50 µM | IC50 ([2]; Huh-7): 18.1 µM; Emax [2, 5]: 63.5%; CC50 ([3]; CC50 (uM)): > 50 µM |
| CSc1ccc(Oc2ccc(S(N)(=O)=O)cc2CN(C)CCCN(C)C)cc1C [Compound 94, 3-(((3-(dimethylamino)propyl)(methyl)amino)methyl)-4-(3-methyl-4-(methylthio)phenoxy)benzenesulfonamide] |  | 3.26 µM | 15 µM | IC90 ([2]; Huh-7): 7.38 µM |
| CSc1ccc(Oc2ccc(S(N)(=O)=O)cc2CN2C[C@@H](O)C[C@@H]2CO)cc1C [Compound 110, 3-(((2S,4R)-4-hydroxy-2-(hydroxymethyl)pyrrolidin-1-yl)methyl)-4-((3-methyl-4-methylthio)phenoxy)benzenesulfonamide] |  | 13.1 µM | > 50 µM |  |
| CN[C@H]1CC[C@@H](c2ccc(Cl)c(Cl)c2)c2ccc(NC(=O)c3ccccc3)cc21 [Sertraline A-Ring Reverse Benzamide, N-((5S,8S)-5-(3,4-dichlorophenyl)-8-(methylamino)-5,6,7,8-tetrahydronaphthalen-2-yl)benzamide] |  | 2.94 µM | 3.67 µM | IC50 ([2]; Huh-7): 2.94 µM; IC90 ([2]; Huh-7): 3.88 µM; Emax [2, 5]: 62.2%; CC50 ([3]; CC50 (uM)): 3.67 µM |
| CSc1ccc(Oc2ccc(S(N)(=O)=O)cc2CN2CCCCC2)cc1C [Compound 73, 4-(3-methyl-4-(methylthio)phenoxy)-3-(piperidin-1-ylmethyl)benzenesulfonamide] |  | 4.7 µM | 37.9 µM | IC90 ([2]; Huh-7): 13.6 µM |
| CSc1ccc(Oc2ccc(S(N)(=O)=O)cc2CNC[C@@H](C)O)cc1C [Compound 68, (R)-3-((2-hydroxypropylamino)methyl)-4-(3-methyl-4-(methylthio)phenoxy)benzenesulfonamide] |  | 4.34 µM | > 50 µM | IC90 ([2]; Huh-7): 15.3 µM |
| CN[C@H]1CC[C@@H](c2ccc(Cl)c(Cl)c2)c2ccc(NC(=O)C3CCCC3)cc21 [N-((5S,8S)-5-(3,4-dichlorophenyl)-8-(methylamino)-5,6,7,8-tetrahydronaphthalen-2-yl)cyclopentanecarboxamide] |  | 4.02 µM | 7 µM | IC50 ([2]; Huh-7): 4.02 µM; IC90 ([2]; Huh-7): 5.89 µM; Emax [2, 5]: 22.9%; CC50 ([3]; CC50 (uM)): 7 µM |
| CCCCC(=O)Nc1ccc2c(c1)[C@@H](NC)CC[C@H]2c1ccc(Cl)c(Cl)c1 [Sertraline A-Ring Reverse Pentanamide, N-((5S,8S)-5-(3,4-dichlorophenyl)-8-(methylamino)-5,6,7,8-tetrahydronaphthalen-2-yl)pentanamide] |  | 3.67 µM | 4.32 µM | IC50 ([2]; Huh-7): 3.68 µM; IC90 ([2]; Huh-7): 5.03 µM; Emax ([2]; Huh-7, read-out: Max Effect @CC30 (inhibition)): 33.1%; Emax [2, 5]: 33.1%; CC50 ([3]; CC50 (uM)): 4.32 µM |
| CN[C@H]1CC[C@@H](c2ccc(Cl)c(Cl)c2)c2ccc(C(N)=S)cc21 [Sertraline A-Ring Thiocarboxamide, (5S,8S)-5-(3,4-dichlorophenyl)-8-(methylamino)-5,6,7,8-tetrahydronaphthalene-2-carbothioamide] |  | 7.19 µM | 13.2 µM |  |
